A word on the Ki: it is a measure of affinity in units of concentration, obtained from inhibition or displacement. The term IC50 denotes the midpoint of a concentration-inhibition curve.

Some results are limits rather than exact numbers.

The target in one experiment is T1, beta-catenin-B-cell lymphoma 9 protein complex (Homo sapiens, UniProt P35222).
T1 sequence (P35222 whole entry): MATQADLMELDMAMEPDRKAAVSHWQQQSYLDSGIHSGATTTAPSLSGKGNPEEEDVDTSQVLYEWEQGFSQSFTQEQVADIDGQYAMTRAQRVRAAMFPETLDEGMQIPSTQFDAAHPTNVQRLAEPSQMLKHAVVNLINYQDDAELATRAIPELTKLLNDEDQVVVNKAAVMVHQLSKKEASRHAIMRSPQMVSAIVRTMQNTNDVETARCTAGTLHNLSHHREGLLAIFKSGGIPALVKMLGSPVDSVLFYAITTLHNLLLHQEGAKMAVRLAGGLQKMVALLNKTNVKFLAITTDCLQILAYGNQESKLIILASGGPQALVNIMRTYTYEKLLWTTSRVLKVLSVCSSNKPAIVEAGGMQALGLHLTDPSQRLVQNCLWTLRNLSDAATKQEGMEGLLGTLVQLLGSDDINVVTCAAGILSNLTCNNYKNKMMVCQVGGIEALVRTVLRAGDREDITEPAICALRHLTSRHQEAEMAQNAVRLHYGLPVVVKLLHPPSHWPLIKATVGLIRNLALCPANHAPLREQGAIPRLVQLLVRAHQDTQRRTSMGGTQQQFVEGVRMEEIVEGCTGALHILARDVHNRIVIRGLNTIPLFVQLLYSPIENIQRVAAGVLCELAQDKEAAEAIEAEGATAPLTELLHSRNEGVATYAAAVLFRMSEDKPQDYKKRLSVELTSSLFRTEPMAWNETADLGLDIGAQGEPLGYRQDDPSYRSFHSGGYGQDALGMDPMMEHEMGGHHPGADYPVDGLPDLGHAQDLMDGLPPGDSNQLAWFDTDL
T1 sequence (O00512 whole entry): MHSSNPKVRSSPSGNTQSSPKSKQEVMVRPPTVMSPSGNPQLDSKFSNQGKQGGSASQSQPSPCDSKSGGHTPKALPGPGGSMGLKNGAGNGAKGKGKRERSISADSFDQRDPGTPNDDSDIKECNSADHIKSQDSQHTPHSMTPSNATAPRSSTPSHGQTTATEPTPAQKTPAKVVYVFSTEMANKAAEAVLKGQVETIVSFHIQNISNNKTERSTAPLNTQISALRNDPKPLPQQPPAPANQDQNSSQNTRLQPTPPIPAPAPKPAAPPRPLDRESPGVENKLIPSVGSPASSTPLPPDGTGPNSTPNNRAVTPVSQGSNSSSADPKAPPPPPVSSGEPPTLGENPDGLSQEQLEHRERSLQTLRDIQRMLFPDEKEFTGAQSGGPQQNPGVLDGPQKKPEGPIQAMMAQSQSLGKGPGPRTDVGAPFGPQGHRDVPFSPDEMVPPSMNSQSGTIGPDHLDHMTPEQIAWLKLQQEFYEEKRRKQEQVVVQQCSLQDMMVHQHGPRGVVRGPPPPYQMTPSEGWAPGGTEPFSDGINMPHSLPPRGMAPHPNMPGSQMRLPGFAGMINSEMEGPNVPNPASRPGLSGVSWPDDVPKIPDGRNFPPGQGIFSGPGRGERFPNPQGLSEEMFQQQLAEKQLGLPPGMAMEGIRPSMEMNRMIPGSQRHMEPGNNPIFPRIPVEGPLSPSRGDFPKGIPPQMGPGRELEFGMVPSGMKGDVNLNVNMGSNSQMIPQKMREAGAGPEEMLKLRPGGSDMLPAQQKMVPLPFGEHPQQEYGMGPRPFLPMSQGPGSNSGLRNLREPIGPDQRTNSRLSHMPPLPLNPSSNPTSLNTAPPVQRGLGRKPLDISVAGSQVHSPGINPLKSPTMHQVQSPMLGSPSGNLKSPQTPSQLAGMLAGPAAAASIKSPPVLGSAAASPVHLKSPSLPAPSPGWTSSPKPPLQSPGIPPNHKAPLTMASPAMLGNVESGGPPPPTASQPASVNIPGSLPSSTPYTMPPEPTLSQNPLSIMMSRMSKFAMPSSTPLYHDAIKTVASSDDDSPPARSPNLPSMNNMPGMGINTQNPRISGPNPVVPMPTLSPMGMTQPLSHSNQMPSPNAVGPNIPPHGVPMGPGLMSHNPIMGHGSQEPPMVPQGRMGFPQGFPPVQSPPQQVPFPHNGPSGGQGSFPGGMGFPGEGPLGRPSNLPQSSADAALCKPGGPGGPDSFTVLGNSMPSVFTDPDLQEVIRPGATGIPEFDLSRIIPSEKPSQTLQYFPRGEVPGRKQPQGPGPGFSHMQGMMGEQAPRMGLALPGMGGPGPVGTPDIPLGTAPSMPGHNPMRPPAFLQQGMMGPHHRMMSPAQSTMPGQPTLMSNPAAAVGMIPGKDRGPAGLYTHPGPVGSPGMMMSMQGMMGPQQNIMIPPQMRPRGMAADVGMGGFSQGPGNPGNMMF
The experiment is described as follows: Inhibition of full length beta-catenin (1 to 781 residues) (unknown origin) expressed in Escherichia coli BL21 (DE3)/N-terminal biotinylated human BCL9 HD2 (350 to 375 residues) protein-protein interaction assessed as inhibition constant incubated for 1 hr by Alphascreen assay.
As for `O=C(c1ccc(O[C@H]2CCNC2)c(C2CCCCC2)c1)N1CCC(Oc2cc(F)cc(N3CCNCC3=O)c2)CC1`, the Ki was over 84 µM.
Still for that read-out and setting: as for `CC(O)C(=O)N1CCC(c2cc(C(=O)N3CCC(Oc4cc(F)cc(N5CCNCC5)c4)CC3)ccc2O[C@H]2CCNC2)CC1` (some centres undefined), the figure is 34 µM; as for `O=C(c1cc(F)cc(N2CCNCC2)c1)N1CCN(C(=O)c2ccc(O[C@@H]3CCNC3)c(C3CCCCC3)c2)CC1`, 50 µM; as for `CC(C)C(=O)N1CCC(c2cc(C(=O)N3CCC(Oc4cc(F)cc(N5CCNCC5)c4)CC3)ccc2O[C@H]2CCNC2)CC1`, 31 µM.
Consider `NCCCC(=O)Nc1cc(F)cc(OC2CCN(C(=O)c3ccc(O[C@H]4CCNC4)c(C4CCCCC4)c3)CC2)c1`, for which the inhibition constant Ki came to 66 µM.
As for `CC(C)(C)C1CCC(c2cc(C(=O)N3CCC(Oc4cc(N5CCNCC5)cc(C(F)(F)F)c4)CC3)ccc2O[C@H]2CCNC2)CC1` (some centres undefined), the inhibition constant (Ki) is 3.6 µM.
The same measure, in the same setting: the value for `CN(C)Cc1cn(Cc2cc(F)cc(OC3CCN(C(=O)c4ccc(O[C@H]5CCNC5)c(C5CCCCC5)c4)CC3)c2)nn1` was 72 µM; that for `O=C(c1ccc(O[C@H]2CCNC2)c(C2CCCCC2)c1)N1CCC(Oc2cc(F)cc(N3C[C@H]4CNC[C@H]4C3)c2)CC1` was over 84 µM; that for `NCCC(=O)Nc1cc(F)cc(OC2CCN(C(=O)c3ccc(O[C@H]4CCNC4)c(C4CCCCC4)c3)CC2)c1` was 62 µM.
On the same count and under the same terms, the value for `O=C(c1ccc(O[C@H]2CCNC2)c(C2CCCCC2)c1)N1CCC(Oc2cc(F)cc(N3CCC4(CC3)CNC4)c2)CC1` was over 84 µM.
`O=C(c1ccc(OC2CCNCC2)c(C2CCCCC2)c1)N1CCC(Oc2cc(F)cc(N3CCNCC3)c2)CC1`: the Ki was over 84 µM.
Same read-out and setting: as for `CC(C)(C)C1CCC(c2cc(C(=O)N3CCC(Oc4cc(N5CCNCC5)ccc4C(=O)O)CC3)ccc2O[C@H]2CCNC2)CC1` (some centres undefined), the figure is over 84 µM.
Still for that read-out and setting: as for `O=C(c1ccc(O[C@H]2CCNC2)c(C2CCCCC2)c1)N1CCC(Oc2cc(F)cc(N3CC4(CCNCC4)C3)c2)CC1`, the figure is over 84 µM.
Still for that read-out and setting: as for `O=C(c1ccc(O[C@H]2CCNC2)c(C2CCN(C(=O)C3CC3)CC2)c1)N1CCC(Oc2cc(F)cc(N3CCNCC3)c2)CC1`, the figure is 35 µM; as for `NCCC(=O)NCc1cc(F)cc(OC2CCN(C(=O)c3ccc(O[C@H]4CCNC4)c(C4CCCCC4)c3)CC2)c1`, over 84 µM; as for `O=C(c1ccc(O[C@H]2CCNC2)c(-c2ccc3[nH]ncc3c2)c1)N1CCC(Oc2cc(F)cc(N3CCNCC3)c2)CC1`, 7.9 µM.
On to `O=C(c1ccc(O[C@H]2CCNC2)c(-c2ccc3nc[nH]c3c2)c1)N1CCC(Oc2cc(F)cc(N3CCNCC3)c2)CC1`, for which the inhibition constant Ki came out at 43 µM.

Another experiment deals with T1, beta-catenin-B-cell lymphoma 9 protein complex. In words: Inhibition of full length beta-catenin (1 to 781 residues) (unknown origin) expressed in Escherichia coli BL21 (DE3)/N-terminal biotinylated human BCL9 HD2 (350 to 375 residues) protein-protein interaction incubated for 1 hr by Alphascreen assay. (In general: Bead proximity is the source of the signal in Alpha formats.)
Compound `O=C(c1ccc(O[C@H]2CCNC2)c(C2CCCCC2)c1)N1CCC(Oc2cc(F)cc(N3CCNCC3=O)c2)CC1` had an IC50 of over 100 µM.
In turn, `CC(O)C(=O)N1CCC(c2cc(C(=O)N3CCC(Oc4cc(F)cc(N5CCNCC5)c4)CC3)ccc2O[C@H]2CCNC2)CC1` (some centres undefined) registered an IC50 of 37 µM.
In turn, `O=C(c1cc(F)cc(N2CCNCC2)c1)N1CCN(C(=O)c2ccc(O[C@@H]3CCNC3)c(C3CCCCC3)c2)CC1` displayed an IC50 of at least 60 µM.
Same read-out and setting: the value for `CC(C)C(=O)N1CCC(c2cc(C(=O)N3CCC(Oc4cc(F)cc(N5CCNCC5)c4)CC3)ccc2O[C@H]2CCNC2)CC1` was 35 µM; that for `NCCCC(=O)Nc1cc(F)cc(OC2CCN(C(=O)c3ccc(O[C@H]4CCNC4)c(C4CCCCC4)c3)CC2)c1` was 73 µM; that for `CC(C)(C)C1CCC(c2cc(C(=O)N3CCC(Oc4cc(N5CCNCC5)cc(C(F)(F)F)c4)CC3)ccc2O[C@H]2CCNC2)CC1` (some centres undefined) was 4.3 µM.
The same measure, in the same setting: the value for `CN(C)Cc1cn(Cc2cc(F)cc(OC3CCN(C(=O)c4ccc(O[C@H]5CCNC5)c(C5CCCCC5)c4)CC3)c2)nn1` was 80 µM.
As for `O=C(c1ccc(O[C@H]2CCNC2)c(C2CCCCC2)c1)N1CCC(Oc2cc(F)cc(N3C[C@H]4CNC[C@H]4C3)c2)CC1`, the IC50 was over 100 µM.
On the same count and under the same terms, as for `NCCC(=O)Nc1cc(F)cc(OC2CCN(C(=O)c3ccc(O[C@H]4CCNC4)c(C4CCCCC4)c3)CC2)c1`, the figure is 69 µM; as for `O=C(c1ccc(O[C@H]2CCNC2)c(C2CCCCC2)c1)N1CCC(Oc2cc(F)cc(N3CCC4(CC3)CNC4)c2)CC1`, over 100 µM.
For the compound `O=C(c1ccc(OC2CCNCC2)c(C2CCCCC2)c1)N1CCC(Oc2cc(F)cc(N3CCNCC3)c2)CC1`, the IC50 is over 100 µM.
On the same count and under the same terms, as for `CC(C)(C)C1CCC(c2cc(C(=O)N3CCC(Oc4cc(N5CCNCC5)ccc4C(=O)O)CC3)ccc2O[C@H]2CCNC2)CC1` (some centres undefined), the figure is over 100 µM; as for `O=C(c1ccc(O[C@H]2CCNC2)c(C2CCCCC2)c1)N1CCC(Oc2cc(F)cc(N3CC4(CCNCC4)C3)c2)CC1`, over 100 µM.
On the same count and under the same terms, the value for `O=C(c1ccc(O[C@H]2CCNC2)c(C2CCN(C(=O)C3CC3)CC2)c1)N1CCC(Oc2cc(F)cc(N3CCNCC3)c2)CC1` was 39 µM; that for `NCCC(=O)NCc1cc(F)cc(OC2CCN(C(=O)c3ccc(O[C@H]4CCNC4)c(C4CCCCC4)c3)CC2)c1` was over 100 µM.
Same read-out and setting: the value for `O=C(c1ccc(O[C@H]2CCNC2)c(-c2ccc3[nH]ncc3c2)c1)N1CCC(Oc2cc(F)cc(N3CCNCC3)c2)CC1` was 8.8 µM.
`O=C(c1ccc(O[C@H]2CCNC2)c(-c2ccc3nc[nH]c3c2)c1)N1CCC(Oc2cc(F)cc(N3CCNCC3)c2)CC1` yielded an IC50 of 48 µM.
